# The source made the active and inactive calls. The calls are words filed in the database; no cut-off is given here.
# Experiments:
# Hep 3B2 [1] = test: Cell cycle arrest in human Hep3B cells assessed as accumulation at G0/G1 phase at 2.5 uM after 48 hrs by propidium iodide staining based flow cytometry (reference value: 39.7 to 40.4%); assay type: functional
# Hep 3B2 [2] = test: Induction of autophagy in human Hep3B cells at 40 uM after 72 hrs by acridine orange staining based flow cytometry (reference value: 1.1 to 4%); assay type: functional
# Hep 3B2 [3] = test: Growth inhibition of human Hep3B cells at 10 uM up to 72 hrs by MTT assay; assay type: functional, cell-based
# Hep 3B2 [4] = test: Induction of apoptosis in human Hep3B cells assessed as ratio of cleaved caspase-3 to beta actin level at 40 uM after 72 hrs in presence of curcumin by Western blot analysis; assay type: functional
# Hep 3B2 [5] = test: Cell cycle arrest in human Hep3B cells assessed as accumulation at G2/M phase at 40 uM after 72 hrs by propidium iodide staining based flow cytometry (reference value: 28.7 to 32.3%); assay type: functional
# Hep 3B2 [6] = test: Cell cycle arrest in human Hep3B cells assessed as accumulation at S phase at 40 uM after 48 hrs by propidium iodide staining based flow cytometry (reference value: 20.8 to 24%); assay type: functional
# Hep 3B2 [7] = test: Cell cycle arrest in human Hep3B cells assessed as accumulation at G0/G1 phase at 10 uM after 48 hrs by propidium iodide staining based flow cytometry (reference value: 39.7 to 40.4%); assay type: functional
# Hep 3B2 [8] = test: Cell cycle arrest in human Hep3B cells assessed as accumulation at S phase at 2.5 uM after 48 hrs by propidium iodide staining based flow cytometry (reference value: 20.8 to 24%); assay type: functional
# Hep 3B2 [9] = test: Induction of autophagy in human Hep3B cells at 40 uM after 24 hrs by acridine orange staining based flow cytometry (reference value: 1.1 to 1.3%); assay type: functional
# Hep 3B2 [10] = test: Cell cycle arrest in human Hep3B cells assessed as accumulation at G0/G1 phase at 2.5 uM after 72 hrs by propidium iodide staining based flow cytometry (reference value: 41.6 to 46.2%); assay type: functional
# Hep 3B2 [11] = test: Cell cycle arrest in human Hep3B cells assessed as accumulation at G2/M phase at 40 uM after 24 hrs by propidium iodide staining based flow cytometry (reference value: 31.8 to […]%); assay type: functional
# Hep 3B2 [12] = test: Down regulation of HIST2H2BE expression in human Hep3B cells at 1 uM after 6 to 24 hrs by L1000 expression profiling method relative to control; assay type: functional
# Hep 3B2 [13] = test: Down regulation of PPP1R13B expression in human Hep3B cells at 1 uM after 6 to 24 hrs by L1000 expression profiling method relative to control; assay type: functional
# Hep 3B2 [14] = test: Down regulation of CHAC1 expression in human Hep3B cells at 1 uM after 6 to 24 hrs by L1000 expression profiling method relative to control; assay type: functional
# Hep 3B2 [15] = test: Cell cycle arrest in human Hep3B cells assessed as accumulation at G0/G1 phase at 10 uM after 48 hrs in absence of curcumin by propidium iodide staining based flow cytometry (reference value: […] +/- […]%); assay type: functional
# Hep 3B2 [16] = test: Down regulation of ARNT2 expression in human Hep3B cells at 1 uM after 6 to 24 hrs by L1000 expression profiling method relative to control; assay type: functional
# Hep 3B2 [17] = test: Down regulation of PTPRK expression in human Hep3B cells at 1 uM after 6 to 24 hrs by L1000 expression profiling method relative to control; assay type: functional
# Hep 3B2 [18] = test: Cell cycle arrest in human Hep3B cells assessed as accumulation at G2/M phase at 10 uM after 48 hrs in presence of curcumin by propidium iodide staining based flow cytometry (reference value: 36.6 +/- 2.9%); assay type: functional
# Hep 3B2 [19] = test: Growth inhibition of human Hep3B cells at 5 uM after 48 hrs in presence of curcumin by MTT assay; assay type: functional
# Hep 3B2 [20] = test: Down regulation of FOS expression in human Hep3B cells at 1 uM after 6 to 24 hrs by L1000 expression profiling method relative to control; assay type: functional
# Hep 3B2 [21] = test: Down regulation of PTK2B expression in human Hep3B cells at 1 uM after 6 to 24 hrs by L1000 expression profiling method relative to control; assay type: functional
# Hep 3B2 [22] = test: Cytotoxicity against human Hep3B cells after 6 days by MTT assay; assay type: functional, cell-based; conditions: 144 h
# Hep 3B2 [23] = test: Cytotoxicity against human Hep3B cells at 20 uM after 24 hrs by MTT assay relative to control; assay type: functional
# Hep 3B2 [24] = test: Growth inhibition of human Hep3B cells after 48 hrs by MTT assay; assay type: functional, cell-based
# Hep 3B2 [25] = test: Down regulation of PTPRC expression in human Hep3B cells at 1 uM after 6 to 24 hrs by L1000 expression profiling method relative to control; assay type: functional
# Hep 3B2 [26] = test: Cell cycle arrest in human Hep3B cells assessed as accumulation at sub-G1 phase at 10 uM after 48 hrs in presence of curcumin by propidium iodide staining based flow cytometry (reference value: 3.7 +/- 0.4%); assay type: functional
# Hep 3B2 [27] = test: Down regulation of ORC1 expression in human Hep3B cells at 1 uM after 6 to 24 hrs by L1000 expression profiling method relative to control; assay type: functional
# Hep 3B2 [28] = test: Up regulation of ARFIP2 expression in human Hep3B cells at 1 uM after 6 to 24 hrs by L1000 expression profiling method relative to control; assay type: functional
# Hep 3B2 [29] = test: Down regulation of FUT1 expression in human Hep3B cells at 1 uM after 6 to 24 hrs by L1000 expression profiling method relative to control; assay type: functional
# Hep 3B2 [30] = test: Up regulation of CCND1 expression in human Hep3B cells at 1 uM after 6 to 24 hrs by L1000 expression profiling method relative to control; assay type: functional
# Hep 3B2 [31] = test: Down regulation of MMP2 expression in human Hep3B cells at 1 uM after 6 to 24 hrs by L1000 expression profiling method relative to control; assay type: functional
# Hep 3B2 [32] = test: Growth inhibition of human Hep3B cells at 10 uM after 48 hrs in presence of curcumin by MTT assay; assay type: functional
# Hep 3B2 [33] = test: Down regulation of TGFB3 expression in human Hep3B cells at 1 uM after 6 to 24 hrs by L1000 expression profiling method relative to control; assay type: functional
# HT-29 = test: Cytotoxicity against human HT-29 cells after 6 days by MTT assay; assay type: functional, cell-based; conditions: HT-29, 144 h
# Hep 3B2 [34] = test: Induction of autophagy in human Hep3B cells assessed as ratio of LC3-2 to beta-actin level at 10 uM after 48 hrs in absence of curcumin by Western blot analysis; assay type: functional
# Hep 3B2 [35] = test: Down regulation of PAPD7 expression in human Hep3B cells at 1 uM after 6 to 24 hrs by L1000 expression profiling method relative to control; assay type: functional
# Hep 3B2 [36] = test: Cell cycle arrest in human Hep3B cells assessed as accumulation at S phase at 10 uM after 48 hrs in absence of curcumin by propidium iodide staining based flow cytometry (reference value: 23.8 +/- 1.9%); assay type: functional
# Hep 3B2 [37] = test: Growth inhibition of human Hep3B cells at 2.5 uM after 48 hrs in presence of curcumin by MTT assay; assay type: functional
smiles,measurement,setting,value
COc1ccc(CNC(=O)Nc2ncc([N+](=O)[O-])s2)cc1,Activity,Hep 3B2 [1],38.5%
same,Activity,Hep 3B2 [2],23.3%
same,growth inhibition (GI),Hep 3B2 [3],Active
same,Ratio,Hep 3B2 [4],1.1
same,Activity,Hep 3B2 [5],42.8%
same,Activity,Hep 3B2 [6],14.9%
same,Activity,Hep 3B2 [7],39.4%
same,Activity,Hep 3B2 [8],23.2%
same,Activity,Hep 3B2 [9],7.1%
same,Activity,Hep 3B2 [10],42.3%
same,Activity,Hep 3B2 [11],37.6%
O=C1COc2ccccc2N1Cc1cn(CCC2OCCO2)nn1,log2FC,Hep 3B2 [12],-4.2274
same,log2FC,Hep 3B2 [13],-3.1647
same,log2FC,Hep 3B2 [14],-4.0849
same,Activity,Hep 3B2 [15],11.6%
same,log2FC,Hep 3B2 [16],-5.0177
same,log2FC,Hep 3B2 [17],-3.3276
same,Activity,Hep 3B2 [18],44.8%
same,CI,Hep 3B2 [19],0.92
same,log2FC,Hep 3B2 [20],-3.1627
same,log2FC,Hep 3B2 [21],-3.3744
same,IC50,Hep 3B2 [22],0.5 µM
same,Activity,Hep 3B2 [23],24.1%
same,growth inhibition (GI),Hep 3B2 [24],Dose-dependent effect
same,log2FC,Hep 3B2 [25],-3.9957
same,Activity,Hep 3B2 [26],21.6%
same,log2FC,Hep 3B2 [27],-3.3272
same,log2FC,Hep 3B2 [28],3.4502
same,log2FC,Hep 3B2 [29],-3.2524
same,log2FC,Hep 3B2 [30],3.2544
same,log2FC,Hep 3B2 [31],-4.0779
same,CI,Hep 3B2 [32],0.89
same,log2FC,Hep 3B2 [33],-3.4573
same,IC50,HT-29,5.7 µM
same,Ratio,Hep 3B2 [34],2.2
same,log2FC,Hep 3B2 [35],-3.2796
same,Activity,Hep 3B2 [36],13.9%
same,CI,Hep 3B2 [37],0.96

# — ChEMBL document CHEMBL4024707, “Using gene expression database to uncover biology functions of 1,4-disubstituted 1,2,3-triazole analogues synthesized via a copper (I)-catalyzed reaction” (Eur J Med Chem, 2017)
